In ChEMBL document CHEMBL1156261, “Evaluation of substituted N,N'-diarylsulfonamides as activators of the tumor cell specific M2 isoform of pyruvate kinase” (J Med Chem, 2010) one finds Activity data, which are given here for 54 molecules.

Activity calls are given as the source filed them. The rule behind the calls is not given here.

In this test the target is Pyruvate kinase (Leishmania mexicana) (UniProt Q27686). The experiment in a line: Activation of Leishmania mexicana pyruvate kinase by quantitative high throughput screening assay.

Consider `O=S(=O)(NC1CCN(S(=O)(=O)c2c(F)cccc2F)CC1)c1ccc2c(c1)OCCO2`, for which the result was inactive. As for `CC1(C)CCc2cc(S(=O)(=O)N3CCN(S(=O)(=O)c4c(F)cccc4F)CC3)ccc2O1`, the entry is “inactive”; as for `O=S(=O)(NC1CCN(S(=O)(=O)c2ccc3c(c2)OCCO3)C1)c1c(F)cccc1F` (centres undefined), “inactive”; as for `C[C@@H]1CN(S(=O)(=O)c2ccc3c(c2)OCCO3)CCN1S(=O)(=O)c1c(F)cccc1F`, “inactive”. As for `O=S(=O)(c1ccc2ccccc2c1)N1CCN(S(=O)(=O)c2c(F)cccc2F)CC1`, the entry is “inactive”; as for `Nc1cccc(S(=O)(=O)N2CCN(S(=O)(=O)c3c(F)cccc3F)CC2)c1`, “inactive”; as for `Nc1cccc(S(=O)(=O)N2CCCN(S(=O)(=O)c3ccc4c(c3)OCCO4)CC2)c1`, “inactive”. For `O=S(=O)(NCCCNS(=O)(=O)c1c(F)cccc1F)c1ccc2c(c1)OCCO2`, the result was inactive. As for `O=S(=O)(c1ccc(Cl)cc1)N1CCN(S(=O)(=O)c2ccc3c(c2)OCCO3)CC1`, the entry is “inactive”; as for `O=C(c1c(F)cccc1F)N1CCN(S(=O)(=O)c2ccc3c(c2)OCCO3)CC1`, “inactive”. For `O=S(=O)(N[C@H]1CC[C@H](NS(=O)(=O)c2c(F)cccc2F)CC1)c1ccc2c(c1)OCCO2`, the result was inactive.

In the case of `O=S(=O)(c1ccc2c(c1)OCCO2)C1CCN(S(=O)(=O)c2c(F)cccc2F)CC1`, the outcome was inactive. For the molecule `C[C@@H]1CN(S(=O)(=O)c2c(F)cccc2F)CCN1S(=O)(=O)c1ccc2c(c1)OCCO2`, the outcome was inactive. On to `O=C(c1ccc2c(c1)OCCO2)N1CCN(S(=O)(=O)c2c(F)cccc2F)CC1`, for which the result was inactive. `C[C@H]1CN(S(=O)(=O)c2c(F)cccc2F)CCN1S(=O)(=O)c1ccc2c(c1)OCCO2`: the outcome was inactive.

In the case of `O=S(=O)(c1ccc2c(c1)OCCO2)N1CCN(S(=O)(=O)c2c(F)cccc2F)CC1`, the outcome was inactive.

In the case of `O=S(=O)(c1c(F)cccc1F)N1CCN(S(=O)(=O)c2c(F)cccc2F)CC1`, the result was inactive.

As for `O=S(=O)(NCCNS(=O)(=O)c1c(F)cccc1F)c1ccc2c(c1)OCCO2`, the result was inactive.

As for `COc1cc(F)c(S(=O)(=O)N2CCCN(S(=O)(=O)c3cccc(N)c3)CC2)c(F)c1`, the outcome was inactive. `O=S(=O)(c1ccc(F)cc1)N1CCN(S(=O)(=O)c2ccc3c(c2)OCCO3)CC1`: the outcome was inactive.

Consider `O=S(=O)(c1ccc2c(c1)OCCO2)N1CCCN(S(=O)(=O)c2c(F)cccc2F)CC1`, for which the result was inactive. For `O=S(=O)(NC1CCN(S(=O)(=O)c2ccc3c(c2)OCCO3)CC1)c1c(F)cccc1F`, the result was inactive. As for `O=S(=O)(c1ccc2c(c1)OCCO2)N1CCN(S(=O)(=O)c2ccccc2F)CC1`, the entry is “inactive”; as for `COc1cc(F)c(S(=O)(=O)N2CCN(S(=O)(=O)c3ccc4c(c3)OCCO4)CC2)c(F)c1`, “inactive”. As for `O=S(=O)(c1ccc2c(c1)OCCO2)N1CCN(S(=O)(=O)c2ccc(F)cc2F)CC1`, the entry is “inactive”. Then `COc1cc(F)c(S(=O)(=O)N2CCN(S(=O)(=O)c3cccc(N)c3)CC2)c(F)c1`, with “inactive”; and `O=S(=O)(c1ccc2c(c1)OCO2)N1CCN(S(=O)(=O)c2c(F)cccc2F)CC1`, with “inactive”; and `O=S(=O)(NCCCCCCNS(=O)(=O)c1c(F)cccc1F)c1ccc2c(c1)OCCO2`, with “inactive”. As for `Cn1ccc2cc(S(=O)(=O)N3CCN(S(=O)(=O)c4c(F)cccc4F)CC3)ccc21`, the outcome was inactive. On to `Nc1cccc(S(=O)(=O)N2CCN(S(=O)(=O)c3ccc4c(c3)OCCO4)CC2)c1`, for which the outcome was inactive. With `O=S(=O)(c1ccc2c(c1)OCCCO2)N1CCN(S(=O)(=O)c2c(F)cccc2F)CC1`, the result was inactive. As for `O=S(=O)(c1ccc2c(c1)OCCO2)N1CCN(S(=O)(=O)c2ccc3c(c2)OCCO3)CC1`, the entry is “inactive”. With `O=S(=O)(c1ccc2c(c1)OCCO2)N1CCN(S(=O)(=O)c2c(F)ccc(O)c2F)CC1`, the result was inactive. As for `COc1ccc(S(=O)(=O)N2CCN(S(=O)(=O)c3ccc4c(c3)OCCO4)CC2)cc1`, the entry is “inactive”; as for `COc1cccc(S(=O)(=O)N2CCN(S(=O)(=O)c3ccc4c(c3)OCCO4)CC2)c1`, “inactive”. `O=S(=O)(NCC1CN(S(=O)(=O)c2ccc3c(c2)OCCO3)C1)c1c(F)cccc1F`: the outcome was inactive. As for `O=S(=O)(c1ccc2c(c1)OCCO2)N1CCN(S(=O)(=O)c2cccc[n+]2[O-])CC1`, the entry is “inactive”. In the case of `N#Cc1ccc(S(=O)(=O)N2CCN(S(=O)(=O)c3ccc4c(c3)OCCO4)CC2)cc1`, the result was inactive.

On to `COc1ccc(S(=O)(=O)N2CCN(S(=O)(=O)c3c(F)cccc3F)CC2)cc1`, for which the outcome was inactive. Then `O=S(=O)(NCCCCCNS(=O)(=O)c1c(F)cccc1F)c1ccc2c(c1)OCCO2`, with “inactive”; and `O=S(=O)(c1cccc(F)c1)N1CCN(S(=O)(=O)c2ccc3c(c2)OCCO3)CC1`, with “inactive”. As for `O=S(=O)(c1ccc2c(c1)OCCO2)N1CCN(S(=O)(=O)c2ccccn2)CC1`, the entry is “inactive”. On to `O=S(=O)(c1ccc2c(c1)OCCO2)N1CCN(S(=O)(=O)c2cc(F)c(F)cc2F)CC1`, for which the result was inactive.

For the molecule `O=S(=O)(NCC1CN(S(=O)(=O)c2c(F)cccc2F)C1)c1ccc2c(c1)OCCO2`, the result was inactive. Then `O=S(=O)(N[C@H]1CC[C@@H](NS(=O)(=O)c2c(F)cccc2F)CC1)c1ccc2c(c1)OCCO2`, with “inactive”. Then `O=C1CN(S(=O)(=O)c2ccc3c(c2)OCCO3)CCN1S(=O)(=O)c1c(F)cccc1F`, with “inactive”; and `O=S(=O)(NCCCCNS(=O)(=O)c1c(F)cccc1F)c1ccc2c(c1)OCCO2`, with “inactive”; and `C[C@H]1CN(S(=O)(=O)c2ccc3c(c2)OCCO3)CCN1S(=O)(=O)c1c(F)cccc1F`, with “inactive”. In the case of `O=S(=O)(c1c(F)cccc1F)C1CCN(S(=O)(=O)c2ccc3c(c2)OCCO3)CC1`, the outcome was inactive. Take `O=S(=O)(c1ccccc1)N1CCN(S(=O)(=O)c2ccc3c(c2)OCCO3)CC1`: the result was inactive.

Turning to `O=S(=O)(c1cccc(C(F)(F)F)c1)N1CCN(S(=O)(=O)c2ccc3c(c2)OCCO3)CC1`, the result was inactive.

Turning to `O=C1CN(S(=O)(=O)c2c(F)cccc2F)CCN1S(=O)(=O)c1ccc2c(c1)OCCO2`, the result was inactive. With `COc1ccc(S(=O)(=O)N2CCN(S(=O)(=O)c3ccc(OC)cc3)CC2)cc1`, the outcome was inactive. In the case of `O=S(=O)(NC1CCN(S(=O)(=O)c2c(F)cccc2F)C1)c1ccc2c(c1)OCCO2` (centres undefined), the result was inactive.
